This series has as its target Bovine serum albumin (Bos taurus, UniProt P02769). The series can be described thus: Bovine Serum Albumin (BSA) assay, in-vitro protein denaturation. The series is classed as biochemical. As to conditions: for inhibition at 20 µg/mL / inhibition at 40 µg/mL / inhibition at 60 µg/mL / inhibition at 80 µg/mL / inhibition at 100 µg/mL: 72° C. for 10 minutes, turbidity at 660 nm. How it is done:
Bovine Serum Albumin Assay (BSA) In vitro-inflammatory activities of the tested samples were determined using a modified method of the BSA assay reported by Williams et al. BSA solution (0.4%, w/v) was prepared in Tris Buffered Saline. The pH was adjusted to 6.4 with glacial acetic acid. Different dilutions of 20, 40, 60, 80, and 100 μg/mL of 1-cyclopropyl-7-(4-((5-(3,5-dichlorobenzylideneamino)-2-thioxo-1,3,4-thiadiazol-3(2H)-yl)methyl)piperazin-1-yl)-6-fluoro-4-oxo-1,4-dihydroquinoline-3-carboxylic acid (IV) and the stock solutions were added to test tubes containing 1 mL of 0.4%, w/v BSA buffer solution. Both negative (solvent) and positive (aspirin) controls were assayed in a similar manner. The solutions were then heated in a water bath at 72° C. for 10 minutes, and cooled for 20 minutes under laboratory conditions. The turbidity of the solutions (level of protein precipitation) was measured at 660 nm in Spectrophotometer (V-770 UV-Visible/NIR Spectrophotometer). The percentage inhibition of precipitation (protein denaturation) was determined relative to the negative control using the following equation: [formula] [formula] Anti-Inflammatory Activity

Like-named read-outs stand apart in the source and are kept apart here.

Sequence of Bovine serum albumin (P02769 25-607): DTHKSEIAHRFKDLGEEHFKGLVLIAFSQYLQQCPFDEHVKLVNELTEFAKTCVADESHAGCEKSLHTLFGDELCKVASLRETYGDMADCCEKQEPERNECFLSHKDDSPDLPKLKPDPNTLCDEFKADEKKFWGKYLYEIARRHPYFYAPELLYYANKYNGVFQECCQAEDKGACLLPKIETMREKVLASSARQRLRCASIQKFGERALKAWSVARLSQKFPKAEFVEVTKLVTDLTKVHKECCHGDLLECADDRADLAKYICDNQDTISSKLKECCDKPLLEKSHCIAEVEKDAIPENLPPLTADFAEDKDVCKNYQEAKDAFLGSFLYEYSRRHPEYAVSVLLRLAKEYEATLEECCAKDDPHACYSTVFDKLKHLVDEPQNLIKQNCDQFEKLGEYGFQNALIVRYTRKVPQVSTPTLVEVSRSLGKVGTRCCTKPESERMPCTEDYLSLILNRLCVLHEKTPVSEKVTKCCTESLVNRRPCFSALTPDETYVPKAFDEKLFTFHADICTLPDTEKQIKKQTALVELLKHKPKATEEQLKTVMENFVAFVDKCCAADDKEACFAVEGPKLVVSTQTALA

On to `O=C(O)c1cn(C2CC2)c2cc(N3CCN(Cn4nc(/N=C/c5cc(Cl)cc(Cl)c5)sc4=S)CC3)c(F)cc2c1=O` [IV, 1-cyclopropyl-7-(4-((5-(3,5-dichlorobenzylideneamino)-2-thioxo-1,3,4-thiadiazol-3(2H)-yl)methyl)piperazin-1-yl)-6-fluoro-4-oxo-1,4-dihydroquinoline-3-carboxylic acid], for which, for the setting “BSA protein denaturation”, the “in vitro anti-inflammatory activity (result in words)” value was “considerable anti-inflammatory effect”. The “% Inhibition of protein denaturation (Bovine serum albumin)” value (bovine, 10 min, 100 μg/mL, pH 6.4) worked out at 83.77%. In addition, where the note is “read-out: % Inhibition of protein denaturation (Bovine serum albumin), concentration 20 μg/ml”, the inhibition at 20 µg/mL was determined as 58%. In addition, the inhibition at 40 µg/mL (read-out: % Inhibition of protein denaturation (Bovine serum albumin), concentration 40 μg/ml) came out at 68.7%. In addition, the inhibition at 60 µg/mL (read-out: % Inhibition of protein denaturation (Bovine serum albumin), concentration 60 μg/ml) was determined as 73.2%. Further, the inhibition at 80 µg/mL (read-out: % Inhibition of protein denaturation (Bovine serum albumin), concentration 80 μg/ml) was determined as 80%. The inhibition at 100 µg/mL (read-out: % Inhibition of protein denaturation (Bovine serum albumin), concentration 100 μg/ml) is 87.6%.
As to `CC(=O)Oc1ccccc1C(=O)O` [aspirin, reference compound], the inhibition at 20 µg/mL (concentration 20 μg/ml, read-out: % Inhibition of protein denaturation (Bovine serum albumin)) is 71%. Under “concentration 40 μg/ml, read-out: % Inhibition of protein denaturation (Bovine serum albumin)”, the inhibition at 40 µg/mL is 77.5%. For the setting “concentration 60 μg/ml, read-out: % Inhibition of protein denaturation (Bovine serum albumin)”, the inhibition at 60 µg/mL came to 82.6%. Further, the inhibition at 80 µg/mL (concentration 80 μg/ml, read-out: % Inhibition of protein denaturation (Bovine serum albumin)) came to 85.5%. Further, the inhibition at 100 µg/mL (concentration 100 μg/ml, read-out: % Inhibition of protein denaturation (Bovine serum albumin)) amounted to 90.8%.

These data come from patent US11891385B1, “1-cyclopropyl-7-(4-((5-(3,5-dichlorobenzylideneamino)-2-thioxo-1,3,4-thiadiazol-3(2H)-yl)methyl)piperazin-1-yl)-6-fluoro-4-oxo-1,4-dihydroquinoline-3-carboxylic aci d as an anti-inflammatory compound” (KING FAISAL UNIVERSITY, priority 2023, dated 2024).
